{"source": "patent US20240207274A1", "about": "“Larotrectinib and moderate CYP3A4 inducer” (Bayer Consumer Care AG, priority 2022, published 2024)", "key": {"[1]": {"test_system": "CYP3A4", "conditions": "classification of the drugs included in the PBPK study; cited from earlier work"}, "[2]": {"test_system": "Transporter Systems", "conditions": "substrate of the transporter named in the cell; FDA list; cited from earlier work"}, "[3]": {"test_system": "CYP Enzymes", "conditions": "moderate inducer of the CYP named in the cell; FDA list filtered for moderate CYP3A4 inducers; cenobamate classification based on 200 mg daily dose; cited from earlier work"}, "[4]": {"target": "CYP3A4 (Homo sapiens, UniProt P08684)", "sequence (P08684 whole entry)": "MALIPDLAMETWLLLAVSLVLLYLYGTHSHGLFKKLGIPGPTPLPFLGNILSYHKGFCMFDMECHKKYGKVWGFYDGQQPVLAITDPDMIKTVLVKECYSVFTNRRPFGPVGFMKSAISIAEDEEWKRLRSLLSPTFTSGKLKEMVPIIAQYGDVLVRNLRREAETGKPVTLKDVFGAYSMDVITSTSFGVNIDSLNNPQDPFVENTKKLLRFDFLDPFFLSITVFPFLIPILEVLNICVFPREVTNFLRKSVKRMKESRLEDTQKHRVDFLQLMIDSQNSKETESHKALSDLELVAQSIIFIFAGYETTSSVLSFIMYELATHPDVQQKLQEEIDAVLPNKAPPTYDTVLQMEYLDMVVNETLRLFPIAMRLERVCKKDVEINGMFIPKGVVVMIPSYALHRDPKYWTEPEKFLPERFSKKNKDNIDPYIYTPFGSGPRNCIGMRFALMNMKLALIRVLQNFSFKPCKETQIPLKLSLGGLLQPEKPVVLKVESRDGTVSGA", "conditions": "following oral administration; cited from earlier work"}, "[5]": {"experiment": "Observed plasma concentrations of larotrectinib, single oral dose 100 mg alone and with itraconazole or rifampicin", "format": "in vivo, human", "conditions": "for Ratio AUC / Ratio Cmax: Observed, single oral dose 100 mg larotrectinib"}, "[6]": {"test_system": "CYP3A4", "conditions": "cited from earlier work"}, "[7]": {"conditions": "plus itraconazole (200 mg QD, 5th day of 7) / control, healthy subjects"}, "[8]": {"conditions": "plus rifampicin (600 mg QD, 10th day of 11) / control"}, "[9]": {"conditions": "coadministration of larotrectinib with rifampicin 600 mg QD"}}, "note": "“Also recorded” adds a separate entry of the source. Like-named read-outs stand apart in the source and are kept apart here.", "data": [{"smiles": "OC(Cn1cncn1)(Cn1cncn1)c1ccc(F)cc1F", "note": "[Fluconazole]", "values": [{"measurement": "CYP3A4 Effect", "setting": "[1]", "value": "Moderate CYP3A4 inhibitor"}]}, {"smiles": "CCC(C)n1ncn(-c2ccc(N3CCN(c4ccc(OCC5COC(Cn6cncn6)(c6ccc(Cl)cc6Cl)O5)cc4)CC3)cc2)c1=O", "note": "(centres unmarked) [Itraconazole]", "values": [{"measurement": "CYP3A4 Effect", "setting": "[1]", "value": "Strong CYP3A4 inhibitor"}]}, {"smiles": "COc1ccccc1Oc1c(NS(=O)(=O)c2ccc(C(C)(C)C)cc2)nc(-c2ncccn2)nc1OCCO", "note": "[bosentan]", "values": [{"measurement": "TRNSP SUB", "setting": "[2]", "value": "OATP1B1;; also recorded: OATP1B3"}]}, {"smiles": "NC(=O)O[C@@H](Cn1ncnn1)c1ccccc1Cl", "note": "[cenobamate]", "values": [{"measurement": "CYP Mod IND", "setting": "[3]", "value": "CYP3A4"}]}, {"smiles": "O=C1Nc2ccc(Cl)cc2[C@@](C#CC2CC2)(C(F)(F)F)O1", "note": "[efavirenz]", "values": [{"measurement": "CYP3A4 Effect", "setting": "[1]", "value": "Moderate CYP3A4 induced"}]}, {"smiles": "O=C(Nc1cnn2ccc(N3CCC[C@@H]3c3cc(F)ccc3F)nc12)N1CC[C@H](O)C1", "note": "[larotrectinib]", "values": [{"measurement": "metabolism", "setting": "[4]", "value": "metabolized by CYP3A4"}, {"measurement": "Ratio AUC", "setting": "[5]; [7]", "value": 4.31}, {"measurement": "Ratio Cmax", "setting": "[5]; [7]", "value": 2.81}, {"measurement": "Ratio AUC", "setting": "[5]; [8]", "value": 0.19}, {"measurement": "Ratio Cmax", "setting": "[5]; [8]", "value": 0.29}, {"measurement": "observed reduction in exposure, AUC", "setting": "[5]; [9]", "value": 81, "unit": "%"}, {"measurement": "observed reduction in exposure, Cmax", "setting": "[5]; [9]", "value": 71, "unit": "%"}]}, {"smiles": "CCC1(c2ccccc2)C(=O)NC(=O)NC1=O", "note": "[phenobarbital]", "values": [{"measurement": "classification as CYP3A4 inducer", "setting": "[6]; listed by FDA", "value": "moderate inducer"}, {"measurement": "classification as CYP3A4 inducer", "setting": "[6]; listed by a leading clinical support website (UpToDate)", "value": "strong inducer"}]}]}
